Target: T1, SMYD3 (Homo sapiens, UniProt Q9H7B4)
T1 sequence (Q9H7B4 1-428): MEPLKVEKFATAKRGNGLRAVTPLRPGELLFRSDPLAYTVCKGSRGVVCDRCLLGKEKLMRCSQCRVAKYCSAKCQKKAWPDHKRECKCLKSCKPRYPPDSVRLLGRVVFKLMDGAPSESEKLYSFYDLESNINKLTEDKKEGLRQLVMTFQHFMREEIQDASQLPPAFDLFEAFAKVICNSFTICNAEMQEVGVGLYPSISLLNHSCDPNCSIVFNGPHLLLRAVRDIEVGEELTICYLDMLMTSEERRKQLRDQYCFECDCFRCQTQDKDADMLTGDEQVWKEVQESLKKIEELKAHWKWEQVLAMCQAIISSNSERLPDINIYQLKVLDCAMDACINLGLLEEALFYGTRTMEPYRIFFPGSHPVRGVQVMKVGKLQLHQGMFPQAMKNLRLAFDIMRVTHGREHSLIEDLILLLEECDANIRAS
Experiment: SMYD3 biochemical assay (MTase-Glo, MAP3K2 peptide substrate)
Settings: Table 3; MTase assay, MAP3K2 peptide substrate; read-out: IC50
Outline: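 Methylation of MAP3K2 peptide (10 µM final) with SAM (1.0 µM final) by SMYD3, 30 min at room temperature. SAH formed was enzymatically converted to ATP and detected as luminescence with MTase-Glo reagents; IC50 by non-linear regression.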

Row | IC50 | SMILES
1 | 930 nM | C#Cc1ccc(-c2cc(Cl)c3ccc(C(=O)N4CCN(C(=O)OCCC)CC4)cc3n2)cc1 [B057, Propyl 4-(4-chloro-2-(4-ethynylphenyl)quinoline-7-carbonyl)piperazine-1-carboxylate]
2 | 1000 nM | C#Cc1ccc(-c2cc(Cl)c3ccc(C(=O)N4CCN(C(=O)OCCC)[C@H](C)C4)cc3n2)cc1 [B059, Propyl (R)-4-(4-chloro-2-(4-ethynylphenyl)quinoline-7-carbonyl)-2-methylpiperazine-1-carboxylate]
3 | 420 nM | CCCOC(=O)N1CCN(C(=O)c2ccc3c(Cl)cc(-c4ccc(N(C)C)cc4)nc3c2)C[C@H]1C [B060, Propyl (R)-4-(4-chloro-2-(4-(dimethylamino)phenyl)quinoline-7-carbonyl)-2-methylpiperazine-1-carboxylate]
4 | 340 nM | CCCOC(=O)N1CCN(C(=O)c2ccc3c(Cl)cc(-c4ccc(C#N)cc4)nc3c2)C[C@H]1C [B062, Propyl (R)-4-(4-chloro-2-(4-cyanophenyl)quinoline-7-carbonyl)-2-methylpiperazine-1-carboxylate]
5 | 80 nM | CCCOC(=O)N1CCN(C(=O)c2ccc3c(Cl)cc(-c4ccc(C(N)=O)cc4)nc3c2)C[C@H]1C [B063, Propyl (R)-4-(2-(4-carbamoylphenyl)-4-chloroquinoline-7-carbonyl)-2-methylpiperazine-1-carboxylate]
6 | 57 nM | CCCOC(=O)N1CCN(C(=O)c2ccc3c(Cl)cc(-c4ccc(CN)cc4)nc3c2)C[C@H]1C [B064, Propyl (R)-4-(2-(4-(aminomethyl)phenyl)-4-chloroquinoline-7-carbonyl)-2-methylpiperazine-1-carboxylate]
7 | 1300 nM | C#Cc1cccc(-c2cc(Cl)c3ccc(C(=O)N4CCN(C(=O)OCCC)[C@H](C)C4)cc3n2)c1 [B071, Propyl (R)-4-(4-chloro-2-(3-ethynylphenyl)quinoline-7-carbonyl)-2-methylpiperazine-1-carboxylate]
8 | 130 nM | CCCOC(=O)N1CCN(C(=O)c2ccc3c(Cl)cc(-c4ccc(N)cc4)nc3c2)C[C@H]1C [B074, Propyl (R)-4-(2-(4-aminophenyl)-4-chloroquinoline-7-carbonyl)-2-methylpiperazine-1-carboxylate]
9 | 440 nM | CCCOC(=O)N1CCN(C(=O)c2ccc3c(Cl)cc(-c4ccc(N5CCCC5)cc4)nc3c2)C[C@H]1C [B075, Propyl (R)-4-(4-chloro-2-(4-(pyrrolidin-1-yl)phenyl)quinoline-7-carbonyl)-2-methylpiperazine-1-carboxylate]
10 | 190 nM | CCCOC(=O)N1CCN(C(=O)c2ccc3c(Cl)cc(-c4ccc(N(C)C)cc4)nc3c2)[C@@H](C)C1 [B076, Propyl (S)-4-(4-chloro-2-(4-(dimethylamino)phenyl)quinoline-7-carbonyl)-3-methylpiperazine-1-carboxylate]
11 | 130 nM | CCCOC(=O)N1CCN(C(=O)c2ccc3c(Cl)cc(-c4cccc(N)c4)nc3c2)C[C@H]1C [B078, Propyl (R)-4-(2-(3-aminophenyl)-4-chloroquinoline-7-carbonyl)-2-methylpiperazine-1-carboxylate]
12 | 690 nM | CCCOC(=O)N1CCN(C(=O)c2ccc3c(Cl)cc(-c4ccc(C(=O)N(C)C)cc4)nc3c2)C[C@H]1C [B082, Propyl (R)-4-(4-chloro-2-(4-(dimethylcarbamoyl)phenyl)quinoline-7-carbonyl)-2-methylpiperazine-1-carboxylate]
13 | 58 nM | CCCOC(=O)N1CCN(C(=O)c2ccc3c(Cl)cc(-c4cccc(NC)c4)nc3c2)C[C@H]1C [B083, Propyl (R)-4-(4-chloro-2-(3-(methylamino)phenyl)quinoline-7-carbonyl)-2-methylpiperazine-1-carboxylate]

More lines, now with the values behind:

Row | SMILES | IC50
14 | CCCOC(=O)N1CCN(C(=O)c2ccc3c(Cl)cc(-c4cccc(C(N)=O)c4)nc3c2)C[C@H]1C [B053, Propyl (R)-4-(2-(3-carbamoylphenyl)-4-chloroquinoline-7-carbonyl)-2-methylpiperazine-1-carboxylate] | 180 nM
15 | CCCOC(=O)N1CCN(C(=O)c2ccc3c(Cl)cc(-c4cccc(CN)c4)nc3c2)C[C@H]1C [B054, Propyl (R)-4-(2-(3-(aminomethyl)phenyl)-4-chloroquinoline-7-carbonyl)-2-methylpiperazine-1-carboxylate] | 100 nM
16 | CCCOC(=O)N1CCN(C(=O)c2ccc3c(Cl)cc(-c4ccc(N(C)C)cc4)nc3c2)CC1 [B055, Propyl 4-(4-chloro-2-(4-(dimethylamino)phenyl)quinoline-7-carbonyl)piperazine-1-carboxylate] | 350 nM
17 | CCCOC(=O)N1CCN(C(=O)c2ccc3c(Cl)c(C)c(-c4cccc(N)c4)nc3c2)C[C@H]1C [B056, Propyl (R)-4-(2-(3-aminophenyl)-4-chloro-3-methylquinoline-7-carbonyl)-2-methylpiperazine-1-carboxylate] | 120 nM
18 | CCCOC(=O)N1CCN(C(=O)c2ccc3c(Cl)cc(-c4cccc(N(C)C)c4)nc3c2)CC1 [B058, Propyl 4-(4-chloro-2-(3-(dimethylamino)phenyl)quinoline-7-carbonyl)piperazine-1-carboxylate] | 1470 nM
19 | CCCOC(=O)N1CCN(C(=O)c2ccc3c(Cl)cc(-c4cccc(N(C)C)c4)nc3c2)C[C@H]1C [B061, Propyl (R)-4-(4-chloro-2-(3-(dimethylamino)phenyl)quinoline-7-carbonyl)-2-methylpiperazine-1-carboxylate] | 870 nM
20 | CCCOC(=O)N1CCN(C(=O)c2ccc3c(Cl)cc(-c4ccc(F)cc4)nc3c2)CC1 [B065, Propyl 4-(4-chloro-2-(4-fluorophenyl)quinoline-7-carbonyl)piperazine-1-carboxylate] | 560 nM
21 | CCCOC(=O)N1CCN(C(=O)c2ccc3c(Cl)cc(-c4ccc(C(F)(F)F)cc4)nc3c2)CC1 [B066, Propyl 4-(4-chloro-2-(4-(trifluoromethyl)phenyl)quinoline-7-carbonyl)piperazine-1-carboxylate] | 3700 nM
22 | CCCOC(=O)N1CCN(C(=O)c2ccc3c(Cl)cc(-c4cccc(CC)c4)nc3c2)CC1 [B067, Propyl 4-(4-chloro-2-(3-ethylphenyl)quinoline-7-carbonyl)piperazine-1-carboxylate] | 2100 nM
23 | CCCOC(=O)N1CCN(C(=O)c2ccc3c(Cl)cc(-c4ccc(F)c(C)c4)nc3c2)CC1 [B068, Propyl 4-(4-chloro-2-(4-fluoro-3-methylphenyl)quinoline-7-carbonyl)piperazine-1-carboxylate] | 1300 nM
24 | CCCOC(=O)N1CCN(C(=O)c2ccc3c(Cl)cc(-c4cccc(N5CCOCC5)c4)nc3c2)C[C@H]1C [B069, Propyl (R)-4-(4-chloro-2-(3-morphohnophenyl)quinoline-7-carbonyl)-2-methylpiperazine-1-carboxylate] | 240 nM
25 | C#Cc1cccc(-c2cc(Cl)c3ccc(C(=O)N4CCN(C(=O)OCCC)CC4)cc3n2)c1 [B070, Propyl 4-(4-chloro-2-(3-ethynylphenyl)quinoline-7-carbonyl)piperazine-1-carboxylate] | 2100 nM
26 | CCCOC(=O)N1CCN(C(=O)c2ccc3c(Cl)cc(-c4ccc([N+](=O)[O-])cc4)nc3c2)CC1 [B072, Propyl 4-(4-chloro-2-(4-nitrophenyl)quinoline-7-carbonyl)piperazine-1-carboxylate] | 1400 nM
27 | CCCOC(=O)N1CCN(C(=O)c2ccc3c(Cl)cc(-c4ccc(N)cc4)nc3c2)CC1 [B073, Propyl 4-(2-(4-aminophenyl)-4-chloroquinoline-7-carbonyl)piperazine-1-carboxylate] | 90 nM
28 | CCCOC(=O)N1CCN(C(=O)c2ccc3c(Cl)cc(-c4cccc(N)c4)nc3c2)CC1 [B077, Propyl 4-(2-(3-aminophenyl)-4-chloroquinoline-7-carbonyl)piperazine-1-carboxylate] | 120 nM
29 | CCCOC(=O)N1CCN(C(=O)c2ccc3c(Cl)cc(C4CC4)nc3c2)C[C@H]1C [B079, Propyl (R)-4-(4-chloro-2-cyclopropylquinoline-7-carbonyl)-2-methylpiperazine-1-carboxylate] | 60 nM
30 | CCCOC(=O)N1CCN(C(=O)c2ccc3c(Cl)cc(-c4nccs4)nc3c2)C[C@H]1C [B080, Propyl (R)-4-(4-chloro-2-(thiazol-2-yl)quinoline-7-carbonyl)-2-methylpiperazine-1-carboxylate] | 10000 nM
31 | CCCOC(=O)N1C2CCCC1CN(C(=O)c1ccc3c(Cl)cc(-c4ccccc4)nc3c1)C2 [B081, Propyl 3-(4-chloro-2-phenylquinoline-7-carbonyl)-3,9-diazabicyclo[3.3.1]nonane-9-carboxylate] | 470 nM
32 | CCCOC(=O)N1CCN(C(=O)c2ccc3c(Cl)cc(-c4cccs4)nc3c2)CC1 [B084, Propyl 4-(4-chloro-2-(thiophen-2-yl)quinoline-7-carbonyl)piperazine-1-carboxylate] | 540 nM
33 | CCCOC(=O)N1CCN(C(=O)c2ccc3c(Cl)cc(-c4cccs4)nc3c2)C[C@H]1C [B085, Propyl (R)-4-(4-chloro-2-(thiophen-2-yl)quinoline-7-carbonyl)-2-methylpiperazine-1-carboxylate] | 210 nM
34 | CCCOC(=O)N1CCN(C(=O)c2ccc3c(Cl)cc(-c4ccc5c(cnn5C)c4)nc3c2)C[C@H]1C [B086, Propyl (R)-4-(4-chloro-2-(1-methyl-1H-indazol-5-yl)quinoline-7-carbonyl)-2-methylpiperazine-1-carboxylate] | 11 nM
